# In patent publication EP0531938B1, “Acrylic gel material and gel-based medical preparation for percutaneous absorption employing the same” (NITTO DENKO CORPORATION, priority 1991, dated 1993):
# Experiment: Solubility of drug in pressure-sensitive adhesive and in liquid component
# Assay type: physicochemical
# Conditions: percent by weight
compound,measurement,setting,value
O=[N+]([O-])O[C@H]1CO[C@H]2[C@@H]1OC[C@H]2O[N+](=O)[O-] [isosorbide dinitrate],solubility in the pressure-sensitive adhesive,"adhesive of Comparative Example 15 (95 parts 2-ethylhexyl acrylate, 5 parts acrylic acid)",7%
same,solubility in isopropyl myristate,,2.1%
